Assay results from ChEMBL document CHEMBL1137060, “Inactivation of S-adenosylhomocysteine hydrolase with haloethyl and dihalocyclopropyl esters derived from homoadenosine-6'-carboxylic acid” (Bioorg Med Chem Lett, 2004).

How the values were obtained:
[1] = target: T1, Adenosylhomocysteinase (Homo sapiens, UniProt P23526); assay: Inhibition of human placental AdoHcy hydrolase
Target sequence in this assay (P23526 whole entry): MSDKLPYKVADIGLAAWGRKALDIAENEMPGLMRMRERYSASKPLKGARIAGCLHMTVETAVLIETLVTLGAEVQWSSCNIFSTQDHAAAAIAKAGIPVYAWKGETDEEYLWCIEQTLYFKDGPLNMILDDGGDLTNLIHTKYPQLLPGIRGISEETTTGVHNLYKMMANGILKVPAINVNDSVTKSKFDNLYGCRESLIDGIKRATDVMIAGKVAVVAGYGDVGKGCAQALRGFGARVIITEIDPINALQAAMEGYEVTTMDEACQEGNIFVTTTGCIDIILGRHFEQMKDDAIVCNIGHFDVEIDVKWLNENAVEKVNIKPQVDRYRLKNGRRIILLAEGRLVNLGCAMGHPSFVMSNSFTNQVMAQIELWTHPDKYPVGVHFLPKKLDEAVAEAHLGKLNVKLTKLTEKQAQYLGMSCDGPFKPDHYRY

[2] = target: T1, Adenosylhomocysteinase; assay: Inactivation of human placental AdoHcy hydrolase
Target sequence in this assay (P23526 2-432 limits assumed): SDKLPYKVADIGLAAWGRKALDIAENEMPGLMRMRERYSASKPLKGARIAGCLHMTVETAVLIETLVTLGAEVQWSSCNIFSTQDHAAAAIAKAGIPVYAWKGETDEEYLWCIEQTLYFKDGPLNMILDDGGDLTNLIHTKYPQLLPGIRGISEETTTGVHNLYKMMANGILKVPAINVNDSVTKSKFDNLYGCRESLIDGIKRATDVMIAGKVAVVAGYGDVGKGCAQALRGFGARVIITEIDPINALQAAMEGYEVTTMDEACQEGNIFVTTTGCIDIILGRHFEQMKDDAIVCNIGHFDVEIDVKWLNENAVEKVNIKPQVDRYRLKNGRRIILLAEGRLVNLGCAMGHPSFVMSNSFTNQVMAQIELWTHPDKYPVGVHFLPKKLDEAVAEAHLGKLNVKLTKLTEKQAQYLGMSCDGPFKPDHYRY

SMILES	Ki [1] [µM]	K inact [2] [min⁻¹]
Nc1ncnc2c1ncn2C1O[C@H](CC(=O)OCCF)C(O)[C@H]1O (single isomer, unassigned)	75	0.19
Nc1ncnc2c1ncn2C1O[C@H](CC(=O)OC2CC2(Cl)Cl)C(O)[C@H]1O (single isomer, unassigned)	750	0.09
Nc1ncnc2c1ncn2C1O[C@H](CC(=O)OCCCl)C(O)[C@H]1O (single isomer, unassigned)	302	0.43
Nc1ncnc2c1ncn2C1O[C@H](CC(=O)OC2CC2(F)F)C(O)[C@H]1O (single isomer, unassigned)	17	0.008
